For this assay, the target named is T1, Glyoxylate reductase/hydroxypyruvate reductase (GRHPR) (Homo sapiens, UniProt Q9UBQ7).
T1 construct: endogenous in cells; host or cells: MCF7
Description: In situ competitive profiling in live MCF7 cells (LFQ): GRHPR. It counts as cell-based. As to conditions: protein GRHPR, 4 h, then 10 µM 24c, n=4. From the text: In our efforts to determine the direct molecular targets of deoxyelephantopin we first performed a gel-based competitive in situ proteomic profiling assay[41] […] While the greater conformational flexibility of probe 24c could potentially lead to more promiscuous target engagement relatively to deoxyelephantopin, it was favoured based on the fact that an alkyne moiety appended to the rigid scaffold of deoxyelephantopin may hinder some of its interactions. MCF7 cells were pretreated with various concentrations of deoxyelephantopin for 4 h, harvested, lysed and the lysates were treated with the fluorogenic probe 24c-Cy3 (10 μM; Supplementary Fig. 10). […] Furthermore, cells were pretreated with 20 μM concentration of deoxyelephantopin or 24c and the proteomic profiles were compared (Fig. 6b, Supplementary Fig. 11). Multiple bands were detected that were equally competed by both DEP and 24c, thus again confirming that 24c can be used as an acceptable clickable analogue of deoxyelephantopin in pulldown assays. Having established the optimal labelling conditions by SDS–PAGE, we next carried out a mass spectrometry-based competitive profiling assay[42] coupled with the method of stable isotope labelling of amino acids in culture (SILAC)[43]. […]
Figure 6 Proteome-wide identification of deoxyelephantopin targets. […] Quantification was performed using label-free quantification (LFQ) method (n=4). […]

The source of these data is PMC4992173, “Divergent synthesis and identification of the cellular targets of deoxyelephantopins” (Nature Communications, 2016).

T1 sequence (Q9UBQ7 whole entry): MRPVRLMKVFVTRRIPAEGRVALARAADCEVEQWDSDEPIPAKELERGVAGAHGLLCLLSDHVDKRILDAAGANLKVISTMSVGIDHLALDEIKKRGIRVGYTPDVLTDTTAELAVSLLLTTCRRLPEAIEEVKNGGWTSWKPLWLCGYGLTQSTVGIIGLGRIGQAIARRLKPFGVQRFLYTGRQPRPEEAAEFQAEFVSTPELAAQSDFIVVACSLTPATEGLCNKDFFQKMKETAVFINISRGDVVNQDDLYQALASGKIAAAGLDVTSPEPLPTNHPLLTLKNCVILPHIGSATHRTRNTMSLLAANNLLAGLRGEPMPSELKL

Take `C=C(C)C(=O)O[C@H]1CC2=C[C@@H](C/C(C)=C/[C@H]3OC(=O)C(=C)[C@H]13)OC2=O` [deoxyelephantopin]: the “LFQ ratio 20 µM Deoxyelephantopin/DMSO with 24c” value stood at 0.00.
